Results: PubChem BioAssay (NCI)
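Interpolation was linear, between the two tested concentrations surrounding the appropriate level; five concentrations were tested over 48 hours in 96-well plates. GI50: concentration for 50% inhibition of growth. TGI marks complete inhibition of growth.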

Legend:
Assay in all cases: NCI-60 cell line screen, 48 h
RXF 393 renal = system: RXF 393 renal
OVCAR-3 ovarian = system: OVCAR-3 ovarian
MOLT-4 leukemia = system: MOLT-4 leukemia
MALME-3M melanoma = system: MALME-3M melanoma
CAKI-1 renal = system: CAKI-1 renal
CCRF-CEM leukemia = system: CCRF-CEM leukemia
HCT-15 colon = system: HCT-15 colon
KM12 colon = system: KM12 colon
SF-295 CNS = system: SF-295 CNS
HOP-92 NSCLC = system: HOP-92 NSCLC

Structure (SMILES) | GI50 (RXF 393 renal) | TGI (RXF 393 renal) | GI50 (OVCAR-3 ovarian) | TGI (OVCAR-3 ovarian) | GI50 (MOLT-4 leukemia) | TGI (MOLT-4 leukemia) | GI50 (MALME-3M melanoma) | TGI (MALME-3M melanoma) | GI50 (CAKI-1 renal) | TGI (CAKI-1 renal) | GI50 (CCRF-CEM leukemia) | TGI (CCRF-CEM leukemia) | GI50 (HCT-15 colon) | TGI (HCT-15 colon) | GI50 (KM12 colon) | TGI (KM12 colon) | GI50 (SF-295 CNS) | TGI (SF-295 CNS) | GI50 (HOP-92 NSCLC) | TGI (HOP-92 NSCLC)
CN1CCN(Cc2ccc(NC(=O)c3ccc(C(C)(C)C)c(C#Cc4cnc5cccnn45)c3)cc2C(F)(F)F)CC1 | 1.8 µM | 3.4 µM | 3.55 µM | 12.2 µM | 1.77 µM | 4 µM | 1.78 µM | 3.97 µM | 12.1 µM | 26.7 µM | 1.93 µM | 4.63 µM | 1.21 µM | 2.66 µM | 0.861 µM | 2.38 µM | 1.97 µM | 3.96 µM | 12.1 µM | 27.1 µM
Cc1sc(C)c(-c2ccc(CO)o2)c1-c1ccc(CO)o1 | 0.316 µM | > 100 µM | 0.183 µM | 0.706 µM | 48.9 µM | > 100 µM | > 100 µM | > 100 µM | 1.16 µM | > 100 µM | 49.1 µM | > 100 µM | > 76.6 µM | > 100 µM | > 83.5 µM | > 100 µM | 0.276 µM | > 100 µM | 7.01 µM | > 100 µM
Cc1c(-c2nc(N)nc(C3CC3)c2C)nc(N)nc1C1CC1 |  | > 100 µM |  | > 100 µM |  | > 100 µM |  | > 100 µM |  | > 100 µM |  | > 100 µM |  | > 100 µM |  | > 100 µM |  | > 100 µM |  | > 100 µM
CNc1nc(NC2CCCC2)nc(Sc2ccc(OC)cc2)n1 | > 10 µM | > 10 µM | > 10 µM | > 10 µM | > 10 µM | > 10 µM | > 10 µM | > 10 µM | > 10 µM | > 10 µM | > 10 µM | > 10 µM | > 10 µM | > 10 µM | > 10 µM | > 10 µM | > 10 µM | > 10 µM | 1.09 µM | 9.5 µM
Clc1ccc(OCc2nnc3n2N=C(c2ccc(Cl)cc2Cl)CS3)c(Cl)c1 | 4.08 µM | 25.4 µM | 21.2 µM | 73.1 µM | 22.8 µM | > 100 µM | 23.8 µM | 79.7 µM | 26.6 µM | 83 µM | 22.3 µM | 89.7 µM | 12.7 µM | 33.2 µM | 25.5 µM | > 100 µM | 23.9 µM | 79.7 µM | 19.6 µM | 89.2 µM
CN(C)CCNC(=O)Nc1c(C#N)[n+]([O-])c2cc(Cl)c(Cl)cc2[n+]1[O-] | 47.9 µM | > 100 µM | 21.4 µM | 57 µM | 3.92 µM | 20.9 µM | 21.6 µM | > 100 µM | 37.6 µM | > 100 µM | 6.88 µM | > 100 µM | 41.4 µM | > 100 µM | 13.3 µM | 43.1 µM | 15 µM | 84.8 µM | 18.1 µM | 99 µM
Oc1c2c(c(O)c3ccccc13)=N[C@@H](c1ccccc1)[C@H](c1ccccc1)N=2 |  | > 100 µM |  | > 100 µM |  | > 100 µM |  | > 100 µM |  | > 100 µM |  | > 100 µM |  | > 100 µM |  | > 100 µM |  | > 100 µM |  | > 100 µM
COc1ccccc1C(=O)c1ccc2ccccc2c1 |  | 61 µM |  | 39.6 µM |  | 34 µM |  | 42.6 µM |  | 49.2 µM |  | > 100 µM |  | > 100 µM |  | 33.2 µM |  | 79.8 µM |  | 66.5 µM
NCCN1CCN(c2nccc(-c3ccc4ccccc4c3)n2)CC1 | 1.46 µM | 3.07 µM | 2.36 µM | 5.45 µM | 2.05 µM | 4.44 µM | 1.83 µM | 3.52 µM | 1.55 µM | 2.95 µM | 1.85 µM | 4.37 µM | 1.79 µM | 3.54 µM | 1.85 µM | 3.48 µM | 1.68 µM | 3.34 µM | 1.61 µM | 4.01 µM
COc1cc(-c2cn(C)c(=O)c(C)c2C)cc(OC)c1CN1CC[C@H](N2CCN(c3ccc(N[C@H]4CCC(=O)NC4=O)cc3F)CC2)C(F)(F)C1 | 11.1 µM | 25 µM | 13.4 µM | 27.2 µM | 21.2 µM | > 100 µM | 15 µM | 30.1 µM | 6.87 µM | 33.4 µM | 19.4 µM | > 100 µM | 10.7 µM | 24.1 µM | 15.1 µM | 30.2 µM | 11.9 µM | 25.5 µM | 8.81 µM | 24.8 µM
COc1cc2c3c(n(CCCN4CCC(N)CC4)c(=O)c2cc1OC)-c1cc2c(cc1C3=O)OCO2 | 0.94 µM | 3.31 µM | 0.765 µM | 1.9 µM | 0.0456 µM | 1.89 µM | 2.09 µM | 9.89 µM | 0.311 µM | 2.99 µM | 0.129 µM | 0.681 µM | 1.01 µM | 6.01 µM | 0.619 µM | 1.59 µM | 0.479 µM | 1.36 µM | 0.202 µM | 1.5 µM
O=c1c2ccccc2c2c3c1cccc3c1cccc3c(=O)c4ccccc4c2c31 |  | > 100 µM |  | > 100 µM |  | > 100 µM |  | > 100 µM |  | > 100 µM |  | > 100 µM |  | > 100 µM |  | > 100 µM |  | > 100 µM |  | > 100 µM
